{"source": "paper PMC11750622", "about": "“Structural insights into translocation and tailored synthesis of hyaluronan” (Nature Structural & Molecular Biology, 2024)", "molecules": {"B1": {"name": "noninhibitory antibody Fab fragment against XlHAS1 (Fab, V domains shown)", "VH": "EVQLVESGGGLVQPGGSLRLSCAASGFNVSSYYIHWVRQAPGKGLEWVASISSSSGSTSYADSVKGRFTISADTSKNTAYLQMNSLRAEDTAVYYCARSGYYWGPYFGGFDYWGQGTLVTVSS", "VL": "DIQMTQSPSSLSASVGDRVTITCRASQSVSSAVAWYQQKPGKAPKLLIYSASSLYSGVPSRFSGSRSGTDFTLTISSLQPEDFATYYCQQSSSSLITFGQGTKVEIK", "notes": "source: selected from Fab phage library E on XlHAS1 nanodiscs"}}, "key": {"CvHAS [1]": {"test_system": "CvHAS", "details": "acceptor (primer) site; UDP-GlcA and Mn2+ present; nanodisc with Nb881 and Nb872; catalytically inactive mutant"}, "CvHAS [2]": {"molecular_target": "T1, CvHAS (Paramecium bursaria Chlorella virus CZ-2, UniProt Z9D3Q5ADJ6)", "T1 construct": "pET28a-CvHAS, Ni-NTA purified, expressed in E. coli C43; MSP1E3D1 nanodiscs with nanobodies for cryo-EM, IMVs for activity", "T1 sequence (Z9D3Q5ADJ6 1-562)": "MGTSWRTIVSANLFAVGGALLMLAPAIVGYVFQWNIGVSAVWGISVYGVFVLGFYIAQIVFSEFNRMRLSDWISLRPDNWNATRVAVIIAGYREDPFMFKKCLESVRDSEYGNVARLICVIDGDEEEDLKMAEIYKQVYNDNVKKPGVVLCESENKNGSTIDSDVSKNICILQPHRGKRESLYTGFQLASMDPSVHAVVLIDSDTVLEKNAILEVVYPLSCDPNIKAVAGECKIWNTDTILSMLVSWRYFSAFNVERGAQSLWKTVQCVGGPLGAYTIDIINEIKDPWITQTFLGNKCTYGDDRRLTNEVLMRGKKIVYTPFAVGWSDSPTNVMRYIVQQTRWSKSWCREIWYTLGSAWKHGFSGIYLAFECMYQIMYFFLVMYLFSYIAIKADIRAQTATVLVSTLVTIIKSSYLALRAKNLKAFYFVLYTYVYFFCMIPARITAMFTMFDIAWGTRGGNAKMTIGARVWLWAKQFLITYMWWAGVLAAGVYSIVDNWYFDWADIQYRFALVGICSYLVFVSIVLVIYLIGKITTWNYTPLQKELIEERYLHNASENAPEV", "assay": "cryo-EM structure, […] Å", "format": "binding", "details": "formed in situ from GlcNAc and UDP-GlcA; Mn2+; nanodisc with Nb881 and Nb872; also with UDP in 8SNE (3.0 Å)"}, "XlHAS1": {"molecular_target": "T2, XlHAS1 (Xenopus laevis, UniProt P13563)", "T2 construct": "gene has1; full-length, N-terminal 12xHis tag, expressed in Sf9 cells, purified in GDN detergent, monomer", "T2 sequence (P13563 1-588)": "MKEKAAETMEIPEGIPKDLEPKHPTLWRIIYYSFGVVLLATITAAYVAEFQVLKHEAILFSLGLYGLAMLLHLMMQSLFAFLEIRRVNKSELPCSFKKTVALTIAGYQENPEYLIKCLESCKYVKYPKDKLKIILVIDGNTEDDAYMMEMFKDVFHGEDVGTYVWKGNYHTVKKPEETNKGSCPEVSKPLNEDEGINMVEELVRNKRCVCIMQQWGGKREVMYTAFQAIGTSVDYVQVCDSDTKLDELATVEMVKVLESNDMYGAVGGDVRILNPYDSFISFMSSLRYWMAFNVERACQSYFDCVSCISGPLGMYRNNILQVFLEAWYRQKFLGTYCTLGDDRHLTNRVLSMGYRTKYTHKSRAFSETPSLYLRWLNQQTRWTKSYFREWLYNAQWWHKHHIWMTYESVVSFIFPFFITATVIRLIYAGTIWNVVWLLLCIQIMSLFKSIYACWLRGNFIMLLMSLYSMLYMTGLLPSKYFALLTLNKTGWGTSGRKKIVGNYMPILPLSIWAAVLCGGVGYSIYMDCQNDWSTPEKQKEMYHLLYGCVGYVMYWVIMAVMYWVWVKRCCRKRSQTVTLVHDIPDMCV", "assay": "cryo-EM structure, […] Å", "format": "binding", "details": "Mg2+; Fab complex in GDN; gating loop inserted; active site"}, "CvHAS [3]": {"molecular_target": "T1, CvHAS", "assay": "cryo-EM structure, […] Å", "format": "binding", "details": "formed in situ from UDP-GlcNAc and UDP-GlcA; Mn2+; nanodisc with Nb886 and Nb872; minor UDP-GlcA state not excluded"}, "[4]": {"molecular_target": "T3, Xenopus laevis HAS isoform 1 (Xenopus laevis, UniProt P13563)", "T3 construct": "also called XlHAS1; DG42", "assay": "cryo-EM structure; GDN-solubilised XlHAS1 mixed with Fab at a 1:4 molar ratio, overnight at 4 °C, SEC on Superose 6 in 0.01% GDN; apo, HA-bound and UDP-bound samples", "details": "both partners purified"}}, "data": [{"molecule": "CC(=O)N[C@H]1C(O)O[C@H](CO)[C@@H](O)[C@@H]1O", "note": "(some centres unmarked) [GlcNAc]", "values": [{"measurement": "cryo-EM structure, 3.2 Å", "setting": "CvHAS [1]", "result": "the GlcNAc primer is well resolved and occupies the same acceptor position"}]}, {"molecule": "CC(=O)N[C@H]1C(O)O[C@H](CO)[C@@H](O)[C@@H]1O[C@@H]1O[C@H](C(=O)O)[C@@H](O)[C@H](O)[C@H]1O", "note": "(some centres unmarked) [HA disaccharide]", "values": [{"measurement": "cryo-EM structure, 3.3 Å", "setting": "CvHAS [2]", "result": "resolves a GlcNAc at the acceptor position that is elongated by a single sugar unit"}]}, {"molecule": "O=c1ccn([C@@H]2O[C@H](COP(=O)(O)OP(=O)(O)O)[C@@H](O)[C@H]2O)c(=O)[nH]1", "note": "[UDP]", "values": [{"measurement": "cryo-EM structure, 3.2 Å", "setting": "XlHAS1", "result": "UDP is coordinated by conserved motifs of the GT domain"}, {"measurement": "cryo-EM structure, 3.0 Å", "setting": "CvHAS [3]", "result": "exposure of WT CvHAS to both of its substrates resulted in a UDP–HA disaccharide-bound conformation"}]}, {"molecule": "B1", "values": [{"measurement": "binding result", "setting": "[4]", "result": "binds"}]}]}
